The source made the active and inactive calls. No cut-off for these calls is given here.
Columns and labels:
ANBL-6 [1] = test: Induction of apoptosis in wild-type human ANBL-6 cells assessed as viable at 20 nM incubated for 72 hrs by annexin V and 7-AAD staining by flow cytometry analysis (Rvb=59 %); assay type: functional
Proteasome [2] = test: Inhibition of proteasome in human U-266 cells assessed as reduction of cell growth incubated for 72 hrs by CellTiter 96 aqueous one solution cell proliferation assay; settings: U-266, 72 h
[3] = system: Bortezomib-resistant ANBL6; test: Induction of apoptosis in human bortezomib-resistant ANBL6 cells assessed as early apoptosis at 20 nM incubated for 72 hrs by annexin V and 7-AAD staining by flow cytometry analysis (Rvb=15 %); assay type: functional
ANBL-6 [4] = test: Induction of apoptosis in wild-type human ANBL-6 cells assessed as early apoptosis at 20 nM incubated for 72 hrs by annexin V and 7-AAD staining by flow cytometry analysis (Rvb=14 %); assay type: functional
ANBL-6 [5] = test: Induction of apoptosis in wild-type human ANBL-6 cells assessed as late apoptosis at 20 nM incubated for 72 hrs by annexin V and 7-AAD staining by flow cytometry analysis (Rvb=26 %); assay type: functional
[6] = target: T1, Bromodomain and extra-terminal motif (BET) (Homo sapiens) (UniProt P25440+O60885+Q58F21+Q15059); test: Inhibition of BET in human bortezomib-resistant ANBL6 cells assessed as increase in protein NOXA expression level at 20 nM by immunoblot analysis; assay type: cell-based; settings: Bortezomib-resistant ANBL6 cell
Proteasome [7] = test: Inhibition of proteasome in human ANBL-6 cells assessed as reduction of cell growth incubated for 72 hrs by CellTiter 96 aqueous one solution cell proliferation assay; settings: ANBL-6, 72 h
Proteasome [8] = test: Inhibition of proteasome in bortezomib Resistant human RPMI-8226 cells assessed as reduction of cell growth incubated for 72 hrs by CellTiter 96 aqueous one solution cell proliferation assay; settings: Bortezomib-resistant RPMI-8226, 72 h
Proteasome [9] = test: Ratio of IC50 for inhibition of proteasome in human ANBL6 cells assessed as reduction of cell viability to IC50 for inhibition of proteasome in human ANBL6/BR resistant cells assessed as reduction of cell viability; settings: condition multiple myeloma
[10] = target: T1, Bromodomain and extra-terminal motif (BET) (Homo sapiens); test: Inhibition of BET in human ANBL-6 WT cells assessed as change in protein MYC expression level at 20 nM by immunoblot analysis; assay type: cell-based
[11] = system: Bortezomib-resistant ANBL6; test: Induction of apoptosis in human bortezomib-resistant ANBL6 cells assessed as late apoptosis at 20 nM incubated for 72 hrs by annexin V and 7-AAD staining by flow cytometry analysis (Rvb=5 %); assay type: functional
Proteasome [12] = test: Inhibition of proteasome in Melphalan Resistant human RPMI-8226 cells assessed as reduction of cell growth incubated for 72 hrs by CellTiter 96 aqueous one solution cell proliferation assay; settings: Melphalan-resistant RPMI-8226 cell
Proteasome [13] = test: Inhibition of proteasome in human RPMI-8226 cells assessed as reduction of cell growth incubated for 72 hrs by CellTiter 96 aqueous one solution cell proliferation assay; settings: RPMI-8226, 72 h
Proteasome [14] = test: Ratio of IC50 for inhibition of proteasome in human RPMI-8226 cells assessed as reduction of cell viability to IC50 for inhibition of proteasome in human RPMI-8226/BR resistant cells assessed as reduction of cell viability; settings: condition multiple myeloma
[15] = target: T1, Bromodomain and extra-terminal motif (BET) (Homo sapiens); test: Inhibition of BET in human bortezomib-resistant ANBL6 cells assessed as change in protein MYC expression level at 20 nM by immunoblot analysis; assay type: cell-based; settings: Bortezomib-resistant ANBL6 cell
Proteasome [16] = test: Inhibition of proteasome in human bortezomib-resistant ANBL6 cells assessed as reduction of cell growth incubated for 72 hrs by CellTiter 96 aqueous one solution cell proliferation assay
[17] = system: Bortezomib-resistant ANBL6; test: Induction of apoptosis in human bortezomib-resistant ANBL6 cells assessed as viable at 20 nM incubated for 72 hrs by annexin V and 7-AAD staining by flow cytometry analysis (Rvb=80 %); assay type: functional
[18] = target: T1, Bromodomain and extra-terminal motif (BET) (Homo sapiens); test: Inhibition of BET in human ANBL-6 WT cells assessed as increase in protein NOXA expression level at 20 nM by immunoblot analysis; assay type: cell-based
[19] = Ratio of IC50 for inhibition of FLT3/cKIT/FGFR3/VEGFR1/PDGFR/CSF1R in human RPMI-8226 cells assessed as reduction of cell viability to IC50 for inhibition of FLT3/cKIT/FGFR3/VEGFR1/PDGFR/CSF1R in human melphalan-resistant RPMI-8226 cells assessed as reduction of cell viability; settings: time 72 hrs; condition multiple myeloma
[20] = Ratio of IC50 for inhibition of FLT3/cKIT/FGFR1/VEGFR3/PDGFR/CSF1R in human RPMI-8226 cells assessed as reduction of cell viability to IC50 for inhibition of FLT3/cKIT/FGFR1/VEGFR3/PDGFR/CSF1R in human RPMI-8226/BR resistant cells assessed as reduction of cell viability; settings: condition multiple myeloma
[21] = Ratio of IC50 for inhibition of FLT3/cKIT/FGFR3/VEGFR2/PDGFR/CSF1R in human RPMI-8226 cells assessed as reduction of cell viability to IC50 for inhibition of FLT3/cKIT/FGFR3/VEGFR2/PDGFR/CSF1R in human melphalan-resistant RPMI-8226 cells assessed as reduction of cell viability; settings: time 72 hrs; condition multiple myeloma
[22] = Ratio of IC50 for inhibition of FLT3/cKIT/FGFR3/VEGFR1/PDGFR/CSF1R in human ANBL6 cells assessed as reduction of cell viability to IC50 for inhibition of FLT3/cKIT/FGFR3/VEGFR1/PDGFR/CSF1R in human ANBL6/BR resistant cells assessed as reduction of cell viability; settings: condition multiple myeloma
cells [23] = settings: Homo sapiens, Bortezomib-resistant RPMI-8226, 72 h
RPMI-8226 = test: Cytotoxicity against human RPMI-8226 cells assessed as reduction of cell growth incubated for 72 hrs by CellTiter 96 aqueous one solution cell proliferation assay; assay type: functional, cell-based; settings: RPMI-8226, 72 h
[24] = Ratio of IC50 for inhibition of FLT3/cKIT/FGFR3/VEGFR2/PDGFR/CSF1R in human ANBL6 cells assessed as reduction of cell viability to IC50 for inhibition of FLT3/cKIT/FGFR3/VEGFR2/PDGFR/CSF1R in human ANBL6/BR resistant cells assessed as reduction of cell viability; settings: condition multiple myeloma
[25] = Ratio of IC50 for inhibition of FLT3/cKIT/FGFR1/VEGFR2/PDGFR/CSF1R in human RPMI-8226 cells assessed as reduction of cell viability to IC50 for inhibition of FLT3/cKIT/FGFR1/VEGFR2/PDGFR/CSF1R in human melphalan-resistant RPMI-8226 cells assessed as reduction of cell viability; settings: time 72 hrs; condition multiple myeloma
[26] = Ratio of IC50 for inhibition of FLT3/cKIT/FGFR1/VEGFR3/PDGFR/CSF1R in human ANBL6 cells assessed as reduction of cell viability to IC50 for inhibition of FLT3/cKIT/FGFR1/VEGFR3/PDGFR/CSF1R in human ANBL6/BR resistant cells assessed as reduction of cell viability; settings: condition multiple myeloma
[27] = Ratio of IC50 for inhibition of FLT3/cKIT/FGFR1/VEGFR1/PDGFR/CSF1R in human RPMI-8226 cells assessed as reduction of cell viability to IC50 for inhibition of FLT3/cKIT/FGFR1/VEGFR1/PDGFR/CSF1R in human melphalan-resistant RPMI-8226 cells assessed as reduction of cell viability; settings: time 72 hrs; condition multiple myeloma
[28] = system: Bortezomib-resistant ANBL6; test: cells; settings: Homo sapiens, Bortezomib-resistant ANBL6, 72 h
[29] = Ratio of IC50 for inhibition of FLT3/cKIT/FGFR1/VEGFR2/PDGFR/CSF1R in human RPMI-8226 cells assessed as reduction of cell viability to IC50 for inhibition of FLT3/cKIT/FGFR1/VEGFR2/PDGFR/CSF1R in human RPMI-8226/BR resistant cells assessed as reduction of cell viability; settings: condition multiple myeloma
[30] = Ratio of IC50 for inhibition of FLT3/cKIT/FGFR3/VEGFR2/PDGFR/CSF1R in human RPMI-8226 cells assessed as reduction of cell viability to IC50 for inhibition of FLT3/cKIT/FGFR3/VEGFR2/PDGFR/CSF1R in human RPMI-8226/BR resistant cells assessed as reduction of cell viability; settings: condition multiple myeloma
[31] = Ratio of IC50 for inhibition of FLT3/cKIT/FGFR3/VEGFR3/PDGFR/CSF1R in human RPMI-8226 cells assessed as reduction of cell viability to IC50 for inhibition of FLT3/cKIT/FGFR3/VEGFR3/PDGFR/CSF1R in human RPMI-8226/BR resistant cells assessed as reduction of cell viability; settings: condition multiple myeloma
[32] = Ratio of IC50 for inhibition of FLT3/cKIT/FGFR1/VEGFR2/PDGFR/CSF1R in human ANBL6 cells assessed as reduction of cell viability to IC50 for inhibition of FLT3/cKIT/FGFR1/VEGFR2/PDGFR/CSF1R in human ANBL6/BR resistant cells assessed as reduction of cell viability; settings: condition multiple myeloma
U-266 = test: cells; settings: Homo sapiens, U-266, 72 h
ANBL-6 [33] = test: cells; settings: Homo sapiens, ANBL-6, 72 h
cells [34] = settings: Homo sapiens, Melphalan-resistant RPMI-8226 cell, 72 h
[35] = Ratio of IC50 for inhibition of FLT3/cKIT/FGFR1/VEGFR1/PDGFR/CSF1R in human RPMI-8226 cells assessed as reduction of cell viability to IC50 for inhibition of FLT3/cKIT/FGFR1/VEGFR1/PDGFR/CSF1R in human RPMI-8226/BR resistant cells assessed as reduction of cell viability; settings: condition multiple myeloma
[36] = Ratio of IC50 for inhibition of FLT3/cKIT/FGFR3/VEGFR3/PDGFR/CSF1R in human RPMI-8226 cells assessed as reduction of cell viability to IC50 for inhibition of FLT3/cKIT/FGFR3/VEGFR3/PDGFR/CSF1R in human melphalan-resistant RPMI-8226 cells assessed as reduction of cell viability; settings: time 72 hrs; condition multiple myeloma
[37] = Ratio of IC50 for inhibition of FLT3/cKIT/FGFR3/VEGFR3/PDGFR/CSF1R in human ANBL6 cells assessed as reduction of cell viability to IC50 for inhibition of FLT3/cKIT/FGFR3/VEGFR3/PDGFR/CSF1R in human ANBL6/BR resistant cells assessed as reduction of cell viability; settings: condition multiple myeloma
[38] = Ratio of IC50 for inhibition of FLT3/cKIT/FGFR3/VEGFR1/PDGFR/CSF1R in human RPMI-8226 cells assessed as reduction of cell viability to IC50 for inhibition of FLT3/cKIT/FGFR3/VEGFR1/PDGFR/CSF1R in human RPMI-8226/BR resistant cells assessed as reduction of cell viability; settings: condition multiple myeloma
[39] = Ratio of IC50 for inhibition of FLT3/cKIT/FGFR1/VEGFR3/PDGFR/CSF1R in human RPMI-8226 cells assessed as reduction of cell viability to IC50 for inhibition of FLT3/cKIT/FGFR1/VEGFR3/PDGFR/CSF1R in human melphalan-resistant RPMI-8226 cells assessed as reduction of cell viability; settings: time 72 hrs; condition multiple myeloma
[40] = Ratio of IC50 for inhibition of FLT3/cKIT/FGFR1/VEGFR1/PDGFR/CSF1R in human ANBL6 cells assessed as reduction of cell viability to IC50 for inhibition of FLT3/cKIT/FGFR1/VEGFR1/PDGFR/CSF1R in human ANBL6/BR resistant cells assessed as reduction of cell viability; settings: condition multiple myeloma

CC(C)C[C@H](NC(=O)[C@H](Cc1ccccc1)NC(=O)c1cnccn1)B(O)O [BORTEZOMIB]
Activity (ANBL-6 [1]): 7% | IC50 (Proteasome [2]): […] | Activity [3]: 45% | Activity (ANBL-6 [4]): 71% | Activity (ANBL-6 [5]): 22% | inhibition [6]: Active | IC50 (Proteasome [7]): […] | IC50 (Proteasome [8]): […] | Ratio IC50 (Proteasome [9]): […] | inhibition [10]: inactive | Activity [11]: 6% | IC50 (Proteasome [12]): […] | IC50 (Proteasome [13]): […] | Ratio IC50 (Proteasome [14]): […] | inhibition [15]: inactive | IC50 (Proteasome [16]): […] | Activity [17]: 49% | inhibition [18]: Active

CN1CCN(c2ccc3nc(-c4c(N)c5c(F)cccc5[nH]c4=O)[nH]c3c2)CC1 [DOVITINIB]
Ratio IC50 [19]: 2.6 | Ratio IC50 [20]: 0.38 | Ratio IC50 [21]: 2.6 | Ratio IC50 [22]: 1.51 | IC50 (cells [23]): 5.62 µM | IC50 (RPMI-8226): 2140 nM | Ratio IC50 [24]: 1.51 | Ratio IC50 [25]: 2.6 | Ratio IC50 [26]: 1.51 | Ratio IC50 [27]: 2.6 | IC50 [28]: 6.61 µM | Ratio IC50 [29]: 0.38 | Ratio IC50 [30]: 0.38 | Ratio IC50 [31]: 0.38 | Ratio IC50 [32]: 1.51 | IC50 (U-266): 6.76 µM | IC50 (ANBL-6 [33]): 10 µM | IC50 (cells [34]): 2950 nM | Ratio IC50 [35]: 0.38 | Ratio IC50 [36]: 2.6 | Ratio IC50 [37]: 1.51 | Ratio IC50 [38]: 0.38 | Ratio IC50 [39]: 2.6 | Ratio IC50 [40]: 1.51
